Measured values from ChEMBL document CHEMBL3991601, “The target landscape of clinical kinase drugs” (Science, 2017).
The source made the active and inactive calls. Cut-off read from the data, not from the text of the source, for most assays here: actives have a measured Kd and inactives only a lower limit.

Columns and labels:
[1] = target: cAMP-dependent protein kinase catalytic subunit alpha (Homo sapiens, UniProt P17612)
[2] = target: T1, Dual specificity mitogen-activated protein kinase kinase 3 (Homo sapiens, UniProt P46734)
T1 sequence (P46734 whole entry): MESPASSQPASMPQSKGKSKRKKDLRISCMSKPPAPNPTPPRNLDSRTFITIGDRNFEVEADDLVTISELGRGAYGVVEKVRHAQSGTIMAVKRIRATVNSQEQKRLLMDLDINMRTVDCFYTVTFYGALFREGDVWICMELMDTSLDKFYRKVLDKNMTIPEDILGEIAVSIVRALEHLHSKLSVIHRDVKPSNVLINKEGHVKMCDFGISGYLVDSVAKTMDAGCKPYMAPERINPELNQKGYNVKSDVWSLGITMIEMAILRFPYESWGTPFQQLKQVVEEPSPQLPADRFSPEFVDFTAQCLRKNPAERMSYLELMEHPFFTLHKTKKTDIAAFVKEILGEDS

[3] = target: Cyclin-dependent kinase 12 (Homo sapiens, UniProt Q9NYV4)
[4] = target: Mitogen-activated protein kinase 9 (Homo sapiens, UniProt P45984)
[5] = target: Cyclin-dependent kinase 4 (Homo sapiens, UniProt P11802)
DNA topoisomerase 2-beta = DNA topoisomerase 2-beta (Homo sapiens, UniProt Q02880)
[6] = target: T2, Glycogen phosphorylase, brain form (Homo sapiens, UniProt P11216)
T2 sequence (P11216 whole entry): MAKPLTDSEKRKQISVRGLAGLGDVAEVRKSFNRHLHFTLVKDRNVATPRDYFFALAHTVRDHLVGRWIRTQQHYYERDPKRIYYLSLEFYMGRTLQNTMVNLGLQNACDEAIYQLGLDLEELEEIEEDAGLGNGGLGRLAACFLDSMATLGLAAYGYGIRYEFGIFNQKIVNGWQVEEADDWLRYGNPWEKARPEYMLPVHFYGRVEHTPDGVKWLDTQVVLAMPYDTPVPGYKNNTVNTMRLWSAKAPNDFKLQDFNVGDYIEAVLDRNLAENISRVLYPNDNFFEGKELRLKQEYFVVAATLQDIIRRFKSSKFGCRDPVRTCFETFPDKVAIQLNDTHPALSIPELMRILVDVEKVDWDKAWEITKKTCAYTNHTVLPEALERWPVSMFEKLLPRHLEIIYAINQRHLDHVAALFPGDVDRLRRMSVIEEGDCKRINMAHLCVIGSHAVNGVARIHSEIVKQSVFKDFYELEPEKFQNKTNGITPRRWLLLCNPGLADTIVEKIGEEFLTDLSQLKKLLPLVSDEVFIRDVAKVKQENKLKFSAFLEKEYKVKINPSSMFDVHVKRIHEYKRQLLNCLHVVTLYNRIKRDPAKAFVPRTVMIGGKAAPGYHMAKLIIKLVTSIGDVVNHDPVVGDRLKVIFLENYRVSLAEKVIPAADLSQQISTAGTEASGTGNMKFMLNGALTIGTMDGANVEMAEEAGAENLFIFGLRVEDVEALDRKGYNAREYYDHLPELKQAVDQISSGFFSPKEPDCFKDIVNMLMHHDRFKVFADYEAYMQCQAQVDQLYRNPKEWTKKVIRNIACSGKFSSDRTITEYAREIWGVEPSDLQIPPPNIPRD

Ephrin type-A receptor 4 = Ephrin type-A receptor 4 (Homo sapiens, UniProt P54764)
[7] = target: Rho-associated protein kinase 2 (Homo sapiens, UniProt O75116)
[8] = target: T3, Thyroid hormone receptor-associated protein 3 (Homo sapiens, UniProt Q9Y2W1)
T3 sequence (Q9Y2W1 whole entry): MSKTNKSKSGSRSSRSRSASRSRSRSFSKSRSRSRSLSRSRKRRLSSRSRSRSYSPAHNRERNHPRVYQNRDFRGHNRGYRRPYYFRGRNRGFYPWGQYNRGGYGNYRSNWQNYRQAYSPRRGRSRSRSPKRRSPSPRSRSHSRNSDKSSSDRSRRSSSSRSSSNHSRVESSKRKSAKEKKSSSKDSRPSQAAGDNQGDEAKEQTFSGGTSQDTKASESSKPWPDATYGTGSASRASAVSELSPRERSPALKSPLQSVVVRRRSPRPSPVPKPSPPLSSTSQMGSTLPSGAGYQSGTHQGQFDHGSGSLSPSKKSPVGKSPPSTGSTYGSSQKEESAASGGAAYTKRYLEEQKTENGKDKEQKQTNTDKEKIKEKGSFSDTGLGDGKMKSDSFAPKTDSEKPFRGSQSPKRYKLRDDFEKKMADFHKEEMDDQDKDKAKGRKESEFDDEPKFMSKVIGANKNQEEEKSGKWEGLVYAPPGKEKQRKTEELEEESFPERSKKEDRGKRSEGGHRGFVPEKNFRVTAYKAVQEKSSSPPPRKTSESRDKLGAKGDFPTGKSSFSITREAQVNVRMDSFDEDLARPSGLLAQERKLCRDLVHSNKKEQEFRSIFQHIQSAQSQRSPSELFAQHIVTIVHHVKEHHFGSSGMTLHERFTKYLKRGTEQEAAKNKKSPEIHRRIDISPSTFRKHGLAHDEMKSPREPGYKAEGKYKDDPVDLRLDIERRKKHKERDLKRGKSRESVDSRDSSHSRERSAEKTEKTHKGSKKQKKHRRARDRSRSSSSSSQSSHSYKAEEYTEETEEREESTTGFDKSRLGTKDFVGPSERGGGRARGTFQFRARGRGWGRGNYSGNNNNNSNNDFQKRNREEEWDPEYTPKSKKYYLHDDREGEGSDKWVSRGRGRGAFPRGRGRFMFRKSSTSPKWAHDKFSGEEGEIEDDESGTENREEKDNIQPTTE

[9] = target: Mitogen-activated protein kinase kinase kinase 4 (Homo sapiens, UniProt Q9Y6R4)
[10] = target: Calcium/calmodulin-dependent protein kinase type II subunit delta (Homo sapiens, UniProt Q13557)
[11] = target: Mitogen-activated protein kinase kinase kinase 20 (Homo sapiens, UniProt Q9NYL2)
[12] = target: Epithelial discoidin domain-containing receptor 1 (Homo sapiens, UniProt Q08345)
[13] = target: Serine/threonine-protein kinase PAK 2 (Homo sapiens, UniProt Q13177)
Note: in the data inactive means no Kd found up to 30 µM.

Sequence of Mitogen-activated protein kinase kinase kinase 4 (Q9Y6R4 whole entry): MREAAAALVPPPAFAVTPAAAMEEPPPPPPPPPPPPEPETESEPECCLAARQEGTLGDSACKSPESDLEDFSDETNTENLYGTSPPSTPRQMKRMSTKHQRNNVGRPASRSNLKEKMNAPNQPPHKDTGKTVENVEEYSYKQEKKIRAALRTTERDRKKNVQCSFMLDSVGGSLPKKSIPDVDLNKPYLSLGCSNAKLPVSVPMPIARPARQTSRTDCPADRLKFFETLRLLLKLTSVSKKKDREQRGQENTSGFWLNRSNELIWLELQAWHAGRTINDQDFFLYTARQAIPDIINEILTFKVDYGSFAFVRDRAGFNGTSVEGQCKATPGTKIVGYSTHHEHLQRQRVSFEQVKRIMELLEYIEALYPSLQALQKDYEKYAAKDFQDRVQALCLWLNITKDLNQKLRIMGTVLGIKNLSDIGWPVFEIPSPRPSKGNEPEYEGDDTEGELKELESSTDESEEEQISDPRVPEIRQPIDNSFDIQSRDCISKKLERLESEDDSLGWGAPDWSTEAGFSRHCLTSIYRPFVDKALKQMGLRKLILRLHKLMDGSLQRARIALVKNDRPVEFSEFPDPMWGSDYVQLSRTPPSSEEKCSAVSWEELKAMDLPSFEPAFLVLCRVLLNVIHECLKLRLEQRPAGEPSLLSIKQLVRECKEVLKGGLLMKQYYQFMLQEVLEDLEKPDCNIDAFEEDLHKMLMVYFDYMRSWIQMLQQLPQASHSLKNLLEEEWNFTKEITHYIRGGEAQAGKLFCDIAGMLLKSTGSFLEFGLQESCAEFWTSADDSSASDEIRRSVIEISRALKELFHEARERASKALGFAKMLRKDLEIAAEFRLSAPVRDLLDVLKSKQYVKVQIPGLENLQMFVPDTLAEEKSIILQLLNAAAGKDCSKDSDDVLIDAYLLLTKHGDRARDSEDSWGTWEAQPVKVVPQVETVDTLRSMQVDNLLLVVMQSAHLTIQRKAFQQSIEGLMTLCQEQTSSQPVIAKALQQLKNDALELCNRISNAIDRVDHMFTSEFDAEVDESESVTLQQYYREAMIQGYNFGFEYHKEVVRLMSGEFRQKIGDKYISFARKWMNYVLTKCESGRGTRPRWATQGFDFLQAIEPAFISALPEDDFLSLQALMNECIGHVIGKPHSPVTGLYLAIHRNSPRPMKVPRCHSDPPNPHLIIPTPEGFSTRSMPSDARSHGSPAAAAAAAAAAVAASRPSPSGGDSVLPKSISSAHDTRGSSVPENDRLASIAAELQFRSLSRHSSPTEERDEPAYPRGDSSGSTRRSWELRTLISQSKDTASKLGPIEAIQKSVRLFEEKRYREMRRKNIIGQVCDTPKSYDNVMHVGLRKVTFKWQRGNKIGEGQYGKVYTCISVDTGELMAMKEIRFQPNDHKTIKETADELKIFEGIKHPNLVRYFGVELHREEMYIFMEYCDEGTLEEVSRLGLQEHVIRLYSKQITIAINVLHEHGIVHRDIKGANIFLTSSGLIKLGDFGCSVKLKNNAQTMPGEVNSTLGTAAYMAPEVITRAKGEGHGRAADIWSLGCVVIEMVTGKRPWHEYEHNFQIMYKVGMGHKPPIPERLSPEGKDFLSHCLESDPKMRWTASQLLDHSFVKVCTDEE
Sequence of Mitogen-activated protein kinase 9 (P45984 whole entry): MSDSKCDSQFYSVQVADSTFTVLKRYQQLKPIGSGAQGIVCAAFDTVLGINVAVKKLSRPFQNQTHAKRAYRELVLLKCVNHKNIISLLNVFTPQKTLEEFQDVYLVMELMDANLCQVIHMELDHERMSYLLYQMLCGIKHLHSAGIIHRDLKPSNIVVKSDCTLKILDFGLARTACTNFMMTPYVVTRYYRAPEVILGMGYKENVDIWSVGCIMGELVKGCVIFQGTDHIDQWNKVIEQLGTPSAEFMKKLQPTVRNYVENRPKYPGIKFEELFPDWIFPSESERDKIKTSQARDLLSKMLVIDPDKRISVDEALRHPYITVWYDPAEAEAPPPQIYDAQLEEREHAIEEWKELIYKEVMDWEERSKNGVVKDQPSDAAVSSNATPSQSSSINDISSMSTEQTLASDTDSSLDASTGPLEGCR
Sequence of Epithelial discoidin domain-containing receptor 1 (Q08345 whole entry, the tested form may be a part): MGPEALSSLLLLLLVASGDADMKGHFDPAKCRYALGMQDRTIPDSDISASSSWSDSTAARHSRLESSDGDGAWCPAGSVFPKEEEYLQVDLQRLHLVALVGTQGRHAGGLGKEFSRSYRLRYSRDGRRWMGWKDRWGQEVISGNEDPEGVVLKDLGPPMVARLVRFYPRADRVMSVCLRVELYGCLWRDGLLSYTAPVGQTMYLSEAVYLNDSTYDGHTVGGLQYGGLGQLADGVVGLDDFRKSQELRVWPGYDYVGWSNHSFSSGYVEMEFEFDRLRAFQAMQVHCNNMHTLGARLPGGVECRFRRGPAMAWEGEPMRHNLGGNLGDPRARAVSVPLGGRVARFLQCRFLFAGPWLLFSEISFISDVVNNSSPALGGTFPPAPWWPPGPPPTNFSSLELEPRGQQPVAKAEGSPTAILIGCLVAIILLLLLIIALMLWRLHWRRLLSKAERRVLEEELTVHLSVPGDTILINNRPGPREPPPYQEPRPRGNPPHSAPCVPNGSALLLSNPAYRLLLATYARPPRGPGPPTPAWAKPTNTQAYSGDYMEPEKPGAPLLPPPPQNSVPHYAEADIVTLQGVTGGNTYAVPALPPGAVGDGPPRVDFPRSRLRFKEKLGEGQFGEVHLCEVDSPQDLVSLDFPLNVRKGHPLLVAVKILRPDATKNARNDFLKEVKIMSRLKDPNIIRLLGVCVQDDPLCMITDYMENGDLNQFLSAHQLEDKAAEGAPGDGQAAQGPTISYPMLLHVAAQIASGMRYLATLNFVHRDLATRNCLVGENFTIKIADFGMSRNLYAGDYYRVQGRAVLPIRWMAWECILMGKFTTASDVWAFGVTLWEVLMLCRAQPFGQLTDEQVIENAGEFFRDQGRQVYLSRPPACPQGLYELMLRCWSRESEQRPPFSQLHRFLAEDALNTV
Sequence of Calcium/calmodulin-dependent protein kinase type II subunit delta (Q13557 whole entry): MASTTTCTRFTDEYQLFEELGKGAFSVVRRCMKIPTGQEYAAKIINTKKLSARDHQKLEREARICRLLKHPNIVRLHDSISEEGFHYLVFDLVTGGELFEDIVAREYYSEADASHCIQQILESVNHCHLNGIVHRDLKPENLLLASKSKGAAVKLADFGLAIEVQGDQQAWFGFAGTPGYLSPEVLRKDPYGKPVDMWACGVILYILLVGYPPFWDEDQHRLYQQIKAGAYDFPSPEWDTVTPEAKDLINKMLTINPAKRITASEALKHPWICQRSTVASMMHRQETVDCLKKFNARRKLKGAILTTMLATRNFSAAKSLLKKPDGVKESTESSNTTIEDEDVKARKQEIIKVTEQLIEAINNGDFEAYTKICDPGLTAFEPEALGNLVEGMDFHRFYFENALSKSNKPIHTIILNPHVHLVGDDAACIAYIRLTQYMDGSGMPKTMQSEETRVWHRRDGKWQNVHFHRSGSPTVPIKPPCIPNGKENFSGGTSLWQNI
Sequence of Rho-associated protein kinase 2 (O75116 whole entry): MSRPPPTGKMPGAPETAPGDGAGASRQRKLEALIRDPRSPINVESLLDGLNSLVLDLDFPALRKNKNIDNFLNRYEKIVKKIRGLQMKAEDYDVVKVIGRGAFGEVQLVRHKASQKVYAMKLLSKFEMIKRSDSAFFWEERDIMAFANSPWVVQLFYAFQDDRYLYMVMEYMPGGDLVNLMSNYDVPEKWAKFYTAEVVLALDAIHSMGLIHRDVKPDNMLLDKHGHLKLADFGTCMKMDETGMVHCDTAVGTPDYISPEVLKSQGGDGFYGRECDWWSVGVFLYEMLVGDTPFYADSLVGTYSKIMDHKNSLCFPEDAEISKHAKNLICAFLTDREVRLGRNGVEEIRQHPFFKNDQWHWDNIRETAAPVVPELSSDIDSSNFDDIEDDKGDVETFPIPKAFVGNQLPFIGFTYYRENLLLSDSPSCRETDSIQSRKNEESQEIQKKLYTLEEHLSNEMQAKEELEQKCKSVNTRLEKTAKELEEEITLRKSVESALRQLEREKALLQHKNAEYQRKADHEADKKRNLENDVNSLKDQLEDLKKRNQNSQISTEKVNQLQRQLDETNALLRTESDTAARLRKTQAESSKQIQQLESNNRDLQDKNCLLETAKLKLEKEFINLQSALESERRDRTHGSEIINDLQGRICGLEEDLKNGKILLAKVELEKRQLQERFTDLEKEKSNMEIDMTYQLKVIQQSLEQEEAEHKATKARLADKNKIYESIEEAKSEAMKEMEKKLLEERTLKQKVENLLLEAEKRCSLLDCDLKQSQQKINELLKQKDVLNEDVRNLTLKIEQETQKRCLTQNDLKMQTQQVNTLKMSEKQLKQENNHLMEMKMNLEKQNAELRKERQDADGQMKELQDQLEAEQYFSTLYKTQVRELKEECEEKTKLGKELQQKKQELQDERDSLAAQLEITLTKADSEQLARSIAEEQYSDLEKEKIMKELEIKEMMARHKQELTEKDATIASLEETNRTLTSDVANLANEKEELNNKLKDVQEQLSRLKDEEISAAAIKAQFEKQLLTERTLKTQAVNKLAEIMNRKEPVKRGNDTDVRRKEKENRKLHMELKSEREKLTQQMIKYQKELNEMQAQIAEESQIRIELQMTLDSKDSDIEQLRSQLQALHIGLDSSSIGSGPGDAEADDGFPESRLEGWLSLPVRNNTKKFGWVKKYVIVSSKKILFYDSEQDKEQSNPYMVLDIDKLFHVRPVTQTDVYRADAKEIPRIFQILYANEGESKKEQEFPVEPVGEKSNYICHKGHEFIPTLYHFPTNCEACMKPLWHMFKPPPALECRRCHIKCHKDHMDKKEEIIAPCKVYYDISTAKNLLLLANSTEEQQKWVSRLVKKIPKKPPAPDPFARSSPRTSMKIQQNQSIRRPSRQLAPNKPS

Compound	Kd [1]	Kd [2]	Kd [3]	Kd [4]	Kd [5]	Kd (DNA topoisomerase 2-beta)	Kd [6]	Kd (Ephrin type-A receptor 4)	Kd [7]	Kd [8]	Kd [9]	Kd [10]	Kd [11]	Kd [12]	Kd [13]
C[C@H]1CNCCCN1S(=O)(=O)c1cccc2cncc(F)c12	> 30 µM (inactive)	3.08 µM (active)	> 30 µM (inactive)	> 30 µM (inactive)	> 30 µM (inactive)	> 30 µM (inactive)	> 30 µM (inactive)	> 30 µM (inactive)	0.083 µM (active)	> 30 µM (inactive)	> 30 µM (inactive)	> 30 µM (inactive)	> 30 µM (inactive)	> 30 µM (inactive)	–
NC(=O)Nc1cc(-c2cccc(F)c2)sc1C(=O)N[C@H]1CCCNC1 [AZD-7762]	> 30 µM (inactive)	> 30 µM (inactive)	> 30 µM (inactive)	> 30 µM (inactive)	> 30 µM (inactive)	> 30 µM (inactive)	> 30 µM (inactive)	> 30 µM (inactive)	> 30 µM (inactive)	> 30 µM (inactive)	> 30 µM (inactive)	> 30 µM (inactive)	> 30 µM (inactive)	> 30 µM (inactive)	–
CC(C)(C)c1nc(-c2cccc(NS(=O)(=O)c3c(F)cccc3F)c2F)c(-c2ccnc(N)n2)s1 [DABRAFENIB]	–	–	> 30 µM (inactive)	–	–	> 30 µM (inactive)	> 30 µM (inactive)	> 30 µM (inactive)	> 30 µM (inactive)	> 30 µM (inactive)	> 30 µM (inactive)	> 30 µM (inactive)	0.184 µM (active)	> 30 µM (inactive)	–
COc1ncc(-c2ccc3nccc(-c4ccnnc4)c3c2)cc1NS(=O)(=O)c1ccc(F)cc1F [OMIPALISIB]	> 30 µM (inactive)	> 30 µM (inactive)	> 30 µM (inactive)	> 30 µM (inactive)	> 30 µM (inactive)	> 30 µM (inactive)	> 30 µM (inactive)	> 30 µM (inactive)	> 30 µM (inactive)	–	> 30 µM (inactive)	> 30 µM (inactive)	> 30 µM (inactive)	> 30 µM (inactive)	> 30 µM (inactive)
NC(=O)c1c(OCc2c(F)cc(Br)cc2F)nsc1NC(=O)NCCCCN1CCCC1 [OSI-632]	–	> 30 µM (inactive)	> 30 µM (inactive)	–	> 30 µM (inactive)	> 30 µM (inactive)	> 30 µM (inactive)	> 30 µM (inactive)	–	> 30 µM (inactive)	> 30 µM (inactive)	–	–	0.067 µM (active)	–
N#CC[C@H](C1CCCC1)n1cc(-c2ncnc3[nH]ccc23)cn1 [RUXOLITINIB]	–	–	> 30 µM (inactive)	–	–	> 30 µM (inactive)	> 30 µM (inactive)	–	–	> 30 µM (inactive)	–	–	–	–	–

Further lines, results first:

Kd [1]	Kd [2]	Kd [3]	Kd [4]	Kd [5]	Kd (DNA topoisomerase 2-beta)	Kd [6]	Kd (Ephrin type-A receptor 4)	Kd [7]	Kd [8]	Kd [9]	Kd [10]	Kd [11]	Kd [12]	Kd [13]	Compound
> 30 µM (inactive)	> 30 µM (inactive)	> 30 µM (inactive)	> 30 µM (inactive)	> 30 µM (inactive)	> 30 µM (inactive)	> 30 µM (inactive)	> 30 µM (inactive)	> 30 µM (inactive)	> 30 µM (inactive)	> 30 µM (inactive)	> 30 µM (inactive)	> 30 µM (inactive)	> 30 µM (inactive)	–	C=CC(=O)N1CCC[C@H](n2c(=O)n(-c3ccc(Oc4ccccc4)cc3)c3c(N)ncnc32)C1
–	–	> 30 µM (inactive)	–	–	> 30 µM (inactive)	> 30 µM (inactive)	–	–	> 30 µM (inactive)	–	–	–	–	–	CNC(=O)c1ccccc1Sc1ccc2c(/C=C/c3ccccn3)n[nH]c2c1 [AXITINIB]
–	–	> 30 µM (inactive)	–	–	> 30 µM (inactive)	> 30 µM (inactive)	–	–	> 30 µM (inactive)	–	–	–	–	–	C[C@@H](Oc1cc(-n2cnc3ccc(CN4CCN(C)CC4)cc32)sc1C(N)=O)c1ccccc1C(F)(F)F [GSK-461364]
> 30 µM (inactive)	> 30 µM (inactive)	> 30 µM (inactive)	1.93 µM (active)	> 30 µM (inactive)	> 30 µM (inactive)	> 30 µM (inactive)	> 30 µM (inactive)	> 30 µM (inactive)	–	> 30 µM (inactive)	> 30 µM (inactive)	> 30 µM (inactive)	> 30 µM (inactive)	> 30 µM (inactive)	CN(C[C@@H]1COCCO1)S(=O)(=O)Nc1ccc2ccc3ncc(-c4cnn(C)c4)cc3c(=O)c2c1 [MK-2461]
–	> 30 µM (inactive)	> 30 µM (inactive)	–	> 30 µM (inactive)	> 30 µM (inactive)	> 30 µM (inactive)	> 30 µM (inactive)	–	> 30 µM (inactive)	> 30 µM (inactive)	–	–	> 30 µM (inactive)	–	CC(=O)NCC(=O)N1[C@@H]2CC[C@H]1c1ccc(Nc3ncc(C(F)(F)F)c(NC4CCC4)n3)cc12 [PF-03814735]
> 30 µM (inactive)	> 30 µM (inactive)	> 30 µM (inactive)	> 30 µM (inactive)	> 30 µM (inactive)	> 30 µM (inactive)	> 30 µM (inactive)	0.022 µM (active)	> 30 µM (inactive)	–	> 30 µM (inactive)	> 30 µM (inactive)	> 30 µM (inactive)	13.8 µM (active)	> 30 µM (inactive)	CCS(=O)(=O)c1cccc(-c2cc(C(=O)NC3CCN(C)CC3)c(C)c3[nH]c4ncc(C)cc4c23)c1 [TAK-901]
0.01 µM (active)	> 30 µM (inactive)	> 30 µM (inactive)	> 30 µM (inactive)	> 30 µM (inactive)	> 30 µM (inactive)	> 30 µM (inactive)	> 30 µM (inactive)	2.28 µM (active)	–	> 30 µM (inactive)	> 30 µM (inactive)	> 30 µM (inactive)	> 30 µM (inactive)	> 30 µM (inactive)	Cn1ncc(Cl)c1-c1cc(C(=O)N[C@H](CN)Cc2ccc(F)c(F)c2)oc1Cl [UPROSERTIB]
